Assay results from the NIST ThermoML archive (doi:10.1021/je0495785).

Key:
[1] = for Normal melting temperature: Crystal, DTA; for Normal boiling temperature: Liquid, not specified, probably DSC
[2] = Molar enthalpy of transition or fusion; settings: Crystal; DSC
[3] = molar heat capacity at constant pressure; settings: 101.33 kPa, Small sample (50 mg) DSC
[4] = molar enthalpy of vaporization or sublimation; settings: Liquid, DSC

Cc1cccc(N(c2cccc(C)c2)c2cccc(C)c2)c1 [3-methyl-N,N-bis(3-methylphenyl)benzenamine]
Settings	Molar enthalpy of transition or fusion [kcal/mol]	Normal boiling temperature [°C]	Normal melting temperature [°C]
[1]	–	294.84	39.81
[2]	3.12	–	–

[3]
Settings	molar heat capacity at constant pressure [J/K/mol]
240 K, Crystal	1455.4
245 K, Crystal	1383
250 K, Crystal	1322.8
255 K, Crystal	1274.6
260 K, Crystal	1238.6
265 K, Crystal	1214.8
270 K, Crystal	1203
275 K, Crystal	1203.4
280 K, Crystal	1216
285 K, Crystal	1240.6
290 K, Crystal	1277.4
295 K, Crystal	1326.3
300 K, Crystal	1387.4
306 K, Crystal	1476.7
336 K, Liquid	1250.8
341 K, Liquid	1249.7
346 K, Liquid	1249.5
351 K, Liquid	1250.1
356 K, Liquid	1251.5
361 K, Liquid	1253.8
366 K, Liquid	1257
371 K, Liquid	1261
376 K, Liquid	1265.8
381 K, Liquid	1271.5

Settings	molar enthalpy [kcal/mol]
[4], 567.99 K	8.98

Cc1ccc(N(c2ccc(C)cc2)c2cccc(C)c2)cc1 [3-methyl-N,N-bis(4-methylphenyl)benzenamine]
Settings	Molar enthalpy of transition or fusion [kcal/mol]	Normal boiling temperature [°C]	Normal melting temperature [°C]
[1]	–	315.94	56.70
[2]	5.19	–	–

[3]
Settings	molar heat capacity at constant pressure [J/K/mol]
298 K, Crystal	417.01
303 K, Crystal	369.25
308 K, Crystal	351.52
313 K, Crystal	363.76
318 K, Crystal	406.01
323 K, Crystal	478.26
325 K, Crystal	515.56
339 K, Liquid	442.71
343 K, Liquid	440.93
348 K, Liquid	438.63
353 K, Liquid	436.24
358 K, Liquid	433.8
363 K, Liquid	431.3
368 K, Liquid	428.71
373 K, Liquid	426.07
378 K, Liquid	423.34
383 K, Liquid	420.55
388 K, Liquid	417.68
393 K, Liquid	414.74

Settings	molar enthalpy [kcal/mol]
[4], 589.09 K	18.1

Cc1ccc(N(c2cccc(C)c2)c2cccc(C)c2)cc1 [3-methyl-N-(3-methylphenyl)-N-(4-methylphenyl)benzenamine]
Settings	Molar enthalpy of transition or fusion [kcal/mol]	Normal boiling temperature [°C]	Normal melting temperature [°C]
[1]	–	274.1	89.50
[2]	6.31	–	–

molar heat capacity at constant pressure [J/K/mol], [3]
Settings	330 K	335 K	340 K	365 K	369 K	372 K
Crystal	114.18	117.34	98.12	–	–	–
Liquid	–	–	–	143.7	141.06	137.86

Settings	molar enthalpy [kcal/mol]
[4], 547.3 K	16.6

Cc1ccc(N(c2ccc(C)cc2)c2ccc(C)cc2)cc1 [tri-tolylamine]
Settings	Molar enthalpy of transition or fusion [kcal/mol]	Normal boiling temperature [°C]	Normal melting temperature [°C]
[1]	–	300.89	115.59
[2]	4.77	–	–

Settings	molar enthalpy [kcal/mol]
[4], 574.04 K	17.3
